ChEMBL document CHEMBL1201861, “Genomics of Drug Sensitity in Cancer screening data, Wellcome Trust Sanger Institute”

Key:
Format in all cases: functional, cell-based
COLO-792 = experiment: cells; conditions: Homo sapiens
Description: SANGER: Inhibition of human COLO-792 cell growth in a cell viability assay.

COR-L279 = experiment: SANGER: Inhibition of human COR-L279 cell growth in a cell viability assay.
Calu-3 = experiment: cells; conditions: Homo sapiens;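 further: growth inhibition of human Calu-3 cells, determined with a cell viability assay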
Description: SANGER: Inhibition of human Calu-3 cell growth in a cell viability assay.

D-392MG = experiment: cells; conditions: Homo sapiens
DMS-273 = experiment: cells; conditions: Homo sapiens
Description: SANGER: Inhibition of human DMS-273 cell growth in a cell viability assay.

Daoy = experiment: cells; conditions: Homo sapiens;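 further: daoy cell growth inhibition, read out as cell viability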
Description: SANGER: Inhibition of human Daoy cell growth in a cell viability assay.

Daudi = experiment: cells; conditions: Homo sapiens;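 further: growth inhibition of Daudi cells, read out by a viability assay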
Description: SANGER: Inhibition of human Daudi cell growth in a cell viability assay.

EB-3 = experiment: cells; conditions: Homo sapiens;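 further: human EB-3 cells, growth inhibition read out via a cell viability assay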
Description: SANGER: Inhibition of human EB-3 cell growth in a cell viability assay.

H4 = experiment: cells; conditions: Homo sapiens
Description: SANGER: Inhibition of human H4 cell growth in a cell viability assay.

HCC1954 = experiment: cells; conditions: Homo sapiens;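 further: growth inhibition of human HCC1954 cells, read out with a cell viability assay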
Description: SANGER: Inhibition of human HCC1954 cell growth in a cell viability assay.

HCC 2998 = experiment: cells; conditions: Homo sapiens;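 further: growth inhibition of human HCC2998 cells, measured with a cell viability read-out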
Description: SANGER: Inhibition of human HCC2998 cell growth in a cell viability assay.

HCC38 = experiment: cells; conditions: Homo sapiens;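 further: cell viability assay on the human HCC38 cell line, with IC50 marking the concentration that inhibits cell growth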
Description: SANGER: Inhibition of human HCC38 cell growth in a cell viability assay.

HO-1-N-1 = experiment: cells; conditions: Homo sapiens;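 further: growth inhibition of human HO-1-N-1 cells, read out with a cell viability assay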
Description: SANGER: Inhibition of human HO-1-N-1 cell growth in a cell viability assay.

HOS = experiment: cells; conditions: Homo sapiens;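 further: growth inhibition of human HOS cells, read out with a cell viability assay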
Description: SANGER: Inhibition of human HOS cell growth in a cell viability assay.

HSC-2 = experiment: cells; conditions: Homo sapiens;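 further: growth inhibition of human HSC-2 cells, read out by a cell viability assay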
Description: SANGER: Inhibition of human HSC-2 cell growth in a cell viability assay.

Huh-7 = experiment: cells; conditions: Homo sapiens;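 further: HuH-7 cell growth inhibition, read out with a cell viability assay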
Description: SANGER: Inhibition of human HuH-7 cell growth in a cell viability assay.

HuP-T3 = experiment: cells; conditions: Homo sapiens;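 further: HuP-T3 cell growth inhibition, read out with a cell viability assay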
Description: SANGER: Inhibition of human HuP-T3 cell growth in a cell viability assay.

HuP-T4 = experiment: cells; conditions: Homo sapiens;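 further: cell viability assay measuring how much HuP-T4 cell growth is inhibited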
Description: SANGER: Inhibition of human HuP-T4 cell growth in a cell viability assay.

KMS-12-PE = experiment: cells; conditions: Homo sapiens;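 further: growth inhibition of human KMS-12-PE cells, measured with a cell viability assay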
Description: SANGER: Inhibition of human KMS-12-PE cell growth in a cell viability assay.

KP-N-YN = experiment: cells; conditions: Homo sapiens;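 further: growth inhibition of KP-N-YN cells, read out with a cell viability assay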
Description: SANGER: Inhibition of human KP-N-YN cell growth in a cell viability assay.

KU-19-19 = experiment: cells; conditions: Homo sapiens
Description: SANGER: Inhibition of human KU-19-19 cell growth in a cell viability assay.

L-540 = experiment: cells; conditions: Homo sapiens;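 further: growth inhibition of the human L-540 cell line, read out with a viability assay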
Description: SANGER: Inhibition of human L-540 cell growth in a cell viability assay.

MC-IXC = experiment: cells; conditions: Homo sapiens;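 further: growth inhibition of MC-IXC cells, read out with a cell viability assay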
Description: SANGER: Inhibition of human MC-IXC cell growth in a cell viability assay.

MDA-MB-231 = experiment: cells; conditions: Homo sapiens
Description: SANGER: Inhibition of human MDA-MB-231 cell growth in a cell viability assay.

MDA-MB-361 = experiment: cells; conditions: Homo sapiens
MEL-HO = experiment: cells; conditions: Homo sapiens
Description: SANGER: Inhibition of human MEL-HO cell growth in a cell viability assay.

MKN-1 = experiment: cells; conditions: Homo sapiens;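 further: growth inhibition of human MKN1 cells, read out by a cell viability measurement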
Description: SANGER: Inhibition of human MKN1 cell growth in a cell viability assay.

NALM-6 = experiment: cells; conditions: Homo sapiens;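 further: growth inhibition of NALM-6 cells, read out with a cell viability assay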
Description: SANGER: Inhibition of human NALM-6 cell growth in a cell viability assay.

NCI-H1436 = experiment: cells; conditions: Homo sapiens;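 further: growth suppression of human NCI-H1436 cells, determined with a cell viability readout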
Description: SANGER: Inhibition of human NCI-H1436 cell growth in a cell viability assay.

NCI-H1793 = experiment: cells; conditions: Homo sapiens;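 further: cell growth inhibition, read out by a cell viability assay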
Description: SANGER: Inhibition of human NCI-H1793 cell growth in a cell viability assay.

NCI-H2087 = experiment: cells; conditions: Homo sapiens;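 further: growth inhibition determined with a cell viability readout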
Description: SANGER: Inhibition of human NCI-H2087 cell growth in a cell viability assay.

NCI-H2196 = experiment: cells; conditions: Homo sapiens;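 further: cell viability assay used as the readout of growth inhibition in NCI-H2196 cells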
Description: SANGER: Inhibition of human NCI-H2196 cell growth in a cell viability assay.

NCI-H358 = experiment: cells; conditions: Homo sapiens;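 further: growth inhibition of NCI-H358 human cells, read out with a cell viability assay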
Description: SANGER: Inhibition of human NCI-H358 cell growth in a cell viability assay.

NCI-H460 = experiment: cells; conditions: Homo sapiens;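 further: cell viability assay scoring growth inhibition of human NCI-H460 cells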
Description: SANGER: Inhibition of human NCI-H460 cell growth in a cell viability assay.

NCI-H522 = experiment: cells; conditions: Homo sapiens;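 further: cell viability assay measuring growth inhibition of human NCI-H522 cells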
Description: SANGER: Inhibition of human NCI-H522 cell growth in a cell viability assay.

NCI-H64 = experiment: cells; conditions: Homo sapiens;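 further: growth inhibition of NCI-H64 cells, read out with a cell viability assay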
Description: SANGER: Inhibition of human NCI-H64 cell growth in a cell viability assay.

NCI-H716 = experiment: cells; conditions: Homo sapiens;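 further: growth inhibition of human NCI-H716 cells, measured by a cell viability assay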
Description: SANGER: Inhibition of human NCI-H716 cell growth in a cell viability assay.

NCI-H810 = experiment: cells; conditions: Homo sapiens;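 further: IC50 reflects inhibition of cancer cell line growth, read out with a cell viability assay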
Description: SANGER: Inhibition of human NCI-H810 cell growth in a cell viability assay.

OAW-42 = experiment: cells; conditions: Homo sapiens;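 further: growth inhibition of OAW-42 cells, read out with a cell viability assay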
Description: SANGER: Inhibition of human OAW-42 cell growth in a cell viability assay.

SCLC-21H = experiment: cells; conditions: Homo sapiens;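 further: growth inhibition of cultured human SCLC-21H cells, read out with a cell viability assay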
Description: SANGER: Inhibition of human SCLC-21H cell growth in a cell viability assay.

SIMA = experiment: cells; conditions: Homo sapiens;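 further: growth inhibition of SIMA cells, measured with a cell viability readout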
Description: SANGER: Inhibition of human SIMA cell growth in a cell viability assay.

SK-MM-2 = experiment: cells; conditions: Homo sapiens;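 further: growth inhibition of human SK-MM-2 cells, read out with a cell viability assay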
Description: SANGER: Inhibition of human SK-MM-2 cell growth in a cell viability assay.

SK-OV-3 = experiment: cells; conditions: Homo sapiens;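 further: growth inhibition of SK-OV-3 human cells, read out with a cell viability assay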
Description: SANGER: Inhibition of human SK-OV-3 cell growth in a cell viability assay.

SN12C = experiment: cells; conditions: Homo sapiens;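 further: growth inhibition of human SN12C cells, measured by a cell viability assay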
Description: SANGER: Inhibition of human SN12C cell growth in a cell viability assay.

SNU-C1 = experiment: cells; conditions: Homo sapiens;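 further: growth inhibition of SNU-C1 human cells, read out by a cell viability assay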
Description: SANGER: Inhibition of human SNU-C1 cell growth in a cell viability assay.

SR = experiment: cells; conditions: Homo sapiens
Description: SANGER: Inhibition of human SR cell growth in a cell viability assay.

ST486 = experiment: SANGER: Inhibition of human ST486 cell growth in a cell viability assay.
SW1710 = experiment: cells; conditions: Homo sapiens;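 further: growth inhibition of SW1710 cells, determined with a cell viability assay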
Description: SANGER: Inhibition of human SW1710 cell growth in a cell viability assay.

SiHa = experiment: cells; conditions: Homo sapiens;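 further: Viability-based readout of growth inhibition in SiHa cells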
Description: SANGER: Inhibition of human SiHa cell growth in a cell viability assay.

23132-87 = experiment: cells; conditions: Homo sapiens
Description: SANGER: Inhibition of human 23132-87 cell growth in a cell viability assay.

786-0 = experiment: cells; conditions: Homo sapiens
Description: SANGER: Inhibition of human 786-0 cell growth in a cell viability assay.

8305C = experiment: cells; conditions: Homo sapiens
Description: SANGER: Inhibition of human 8305C cell growth in a cell viability assay.

A2058 = experiment: cells; conditions: Homo sapiens;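 further: reduction of A2058 cell growth, read out with a viability assay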
Description: SANGER: Inhibition of human A2058 cell growth in a cell viability assay.

A2780 = experiment: cells; conditions: Homo sapiens;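 further: growth inhibition of A2780 cells, read out with a cell viability assay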
Description: SANGER: Inhibition of human A2780 cell growth in a cell viability assay.

A-427 = experiment: cells; conditions: Homo sapiens;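 further: growth inhibition of human A-427 cells, read out by a cell viability assay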
Description: SANGER: Inhibition of human A427 cell growth in a cell viability assay.

A-431 = experiment: cells; conditions: Homo sapiens;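 further: growth inhibition of A-431 cells, determined with a cell viability read-out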
Description: SANGER: Inhibition of human A431 cell growth in a cell viability assay.

AN3-CA = experiment: cells; conditions: Homo sapiens;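 further: growth inhibition of human AN3-CA cells measured by a cell viability assay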
Description: SANGER: Inhibition of human AN3-CA cell growth in a cell viability assay.

ASPC1 = experiment: cells; conditions: Homo sapiens;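 further: growth inhibition of AsPC-1 cells, read out with a cell viability assay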
Description: SANGER: Inhibition of human AsPC-1 cell growth in a cell viability assay.

BCPAP = experiment: cells; conditions: Homo sapiens;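 further: growth inhibition of BCPAP cells, read out in a cell viability assay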
Description: SANGER: Inhibition of human BCPAP cell growth in a cell viability assay.

BEN = experiment: cells; conditions: Homo sapiens;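 further: growth inhibition of the BEN cell line, read out with a cell viability assay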
Description: SANGER: Inhibition of human BEN cell growth in a cell viability assay.

BOKU = experiment: cells; conditions: Homo sapiens;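 further: growth inhibition of the human BOKU cell line, read out by a cell viability assay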
Description: SANGER: Inhibition of human BOKU cell growth in a cell viability assay.

TE-441-T = experiment: cells; conditions: Homo sapiens
Description: SANGER: Inhibition of human TE-441-T cell growth in a cell viability assay.

VM-CUB-1 = experiment: cells; conditions: Homo sapiens;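 further: cell viability assay measuring growth inhibition of the human VM-CUB-1 cell line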
Description: SANGER: Inhibition of human VM-CUB-1 cell growth in a cell viability assay.

YKG-1 = experiment: cells; conditions: Homo sapiens
Description: SANGER: Inhibition of human YKG-1 cell growth in a cell viability assay.

CMK = experiment: cells; conditions: Homo sapiens
Description: SANGER: Inhibition of human CMK cell growth in a cell viability assay.

Measured: IC50

C/C(O)=C(\C#N)C(=O)Nc1cc(Br)ccc1Br
> 16 µM: all assays above

CC(O)(CS(=O)(=O)c1ccc(F)cc1)C(=O)Nc1ccc(C#N)c(C(F)(F)F)c1 (stereo not given) [BICALUTAMIDE]
> 1.02 µM: all assays above
